US7956216B2, “Alpha-helical mimetics” (The Walter and Eliza Hall Institute of Medical Research, priority 2006, dated 2011)
Like-named read-outs stand apart in the source and are kept apart here.

Key:
[1] = biological target: T1, GST tagged Bcl-xL ΔC25 protein (Homo sapiens, UniProt Q07817); assay: Alphascreen GST competition assay, Bcl-xL vs biotinylated Bim BH3-26 peptide; details: competition with biotinylated Bim BH3-26 peptide (5.0 nM), Bcl-xL 0.6 nM, n.b. = not binding in the assay conditions; for IC50: read-out: Bcl-xLΔ25 IC50
T1 construct: GST tagged Bcl-xL ΔC25 protein
T1 sequence (Q07817 1-208 limits assumed): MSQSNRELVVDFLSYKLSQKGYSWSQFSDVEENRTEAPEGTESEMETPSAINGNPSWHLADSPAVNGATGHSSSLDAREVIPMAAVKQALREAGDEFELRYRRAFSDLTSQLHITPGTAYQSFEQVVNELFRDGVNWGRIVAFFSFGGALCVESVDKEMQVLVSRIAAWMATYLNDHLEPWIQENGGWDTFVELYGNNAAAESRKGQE

[2] = biological target: T2, GST tagged Bclw ΔC29 protein (Homo sapiens, UniProt Q92843); assay: Alphascreen GST competition assay, Bcl-w vs biotinylated Bim BH3-26 peptide; type: binding; details: for IC50: read-out: Bcl-wΔ29 IC50
T2 construct: GST tagged Bclw ΔC29 protein
T2 sequence (Q92843 1-164 limits assumed): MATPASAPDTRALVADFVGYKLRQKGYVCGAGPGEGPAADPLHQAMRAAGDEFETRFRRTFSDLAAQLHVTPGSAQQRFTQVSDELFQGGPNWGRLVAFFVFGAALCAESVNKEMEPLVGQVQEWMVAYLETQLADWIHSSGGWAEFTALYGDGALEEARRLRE

GST tagged Mcl-1 protein = GST tagged Mcl-1 protein (Homo sapiens, UniProt Q07820); assay: Alphascreen GST competition assay, Mcl-1 vs biotinylated Bak BH3 peptide; details: competition with biotinylated Bak BH3 peptide (4.0 nM), Mcl-1 0.4 nM; n.b. = not binding in the assay conditions
Sequence of GST tagged Mcl-1 protein (Q07820 whole entry): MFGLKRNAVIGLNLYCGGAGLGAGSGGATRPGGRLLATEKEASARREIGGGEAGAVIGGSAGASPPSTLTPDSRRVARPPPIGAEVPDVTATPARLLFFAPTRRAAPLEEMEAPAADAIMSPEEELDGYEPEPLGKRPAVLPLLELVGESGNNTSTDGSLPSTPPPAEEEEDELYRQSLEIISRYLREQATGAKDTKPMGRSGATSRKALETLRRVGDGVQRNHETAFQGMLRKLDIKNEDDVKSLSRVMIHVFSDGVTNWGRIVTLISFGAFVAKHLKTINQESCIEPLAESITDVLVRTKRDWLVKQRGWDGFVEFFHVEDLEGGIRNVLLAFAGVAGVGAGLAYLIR

[3] = competition with biotinylated Bim BH3-26 peptide (3.0 nM), Bcl-w 0.05 nM, n.b. = not binding in the assay conditions
[4] = footnote a: tested in a separate experiment

## CCCN(C(=O)N[C@@H](CSCC(C)CC)C(=O)O)C(=O)c1cccc(C#Cc2ccccc2)c1 (stereo partly shown) [(125)]
[1]
  IC50: 44 µM

## CC(C)CCN(C(=O)N[C@@H](CSCc1ccccc1)C(=O)O)C(=O)c1ccc(-c2ccccc2)cc1 [(42)]
[2]; [3]
  IC50: 49 µM

## CCCN(C(=O)N[C@@H](CSCC(C)C)C(=O)O)C(=O)c1cccc(C#Cc2cccc(F)c2)c1 [(140)]
GST tagged Mcl-1 protein
  Mcl-1 IC50 (μM): n.b.^b

## O=C(O)[C@H](CSCc1ccccc1)NC(=O)N(Cc1ccc(Cl)c(Cl)c1)C(=O)c1ccc(-c2ccccc2)cc1 [(85)]
[1]
  Bcl-xLΔ25 IC50 (μM): n.b.^b

## CCCN(C(=O)CCCc1ccccc1)C(=O)N[C@@H](CSCc1ccccc1)C(=O)O [(106)]
[1]
  IC50: 182 µM
[2]; [3]
  IC50: 102 µM
GST tagged Mcl-1 protein
  IC50: 251 µM

## CCCN(C(=O)N[C@@H](CSCC(C)C)C(=O)O)C(=O)c1cccc(C#Cc2ccncc2)c1 [(150)]
[1]
  Bcl-xLΔ25 IC50 (μM): n.b.^b

## CCCN(C(=O)NCC(=O)O)C(=O)c1cccc(-c2ccccc2)c1 [(71)]
[2]; [3]
  Bcl-wΔ29 IC50 (μM): n.b.^b

## CCCN(C(=O)N[C@@H](CSCc1ccccc1)C(=O)O)C(=O)c1cccc(/C=C/c2ccccc2)c1 [(87)]
[1]
  IC50: 151 µM
[2]; [3]
  IC50: 99 µM
GST tagged Mcl-1 protein
  IC50: 161 µM

## CCCN(C(=O)N[C@@H](CSCCCc1ccccc1)C(=O)O)C(=O)c1cccc(C#Cc2ccccc2)c1 [(95)]
[1]
  IC50: 73 µM
[2]; [3]
  IC50: 35 µM
GST tagged Mcl-1 protein
  IC50: 94 µM

## CCCN(C(=O)N[C@@H](CSC(C)C)C(=O)O)C(=O)c1cccc(C#Cc2ccccc2)c1 [(92)]
GST tagged Mcl-1 protein
  Mcl-1 IC50 (μM): n.b.^b

## O=C(O)[C@H](CSCc1ccccc1)NC(=O)N(CC1CCCCC1)C(=O)c1cccc(-c2ccccc2)c1 [(9)]
[2]; [4]
  IC50: 14 µM

## CCCN(C(=O)N[C@@H](CSCC(C)C)C(=O)NS(=O)(=O)c1cccc(-c2ccccc2)c1)C(=O)c1cccc(C#Cc2ccccc2)c1 [(155)]
[1]
  IC50: 53 µM

## CCCN(C(=O)N[C@@H](CSCc1ccccc1)C(=O)O)C(=O)c1cccc(C#Cc2ccc(Br)cc2)c1 [(134)]
[1]
  IC50: 51 µM
GST tagged Mcl-1 protein
  IC50: 181 µM

## O=C([C@H](CSCc1ccccc1)NC(=O)N(Cc1cccc2ccccc12)C(=O)c1cccc(-c2ccc(F)cc2)c1)N1CCOCC1 [(72)]
[2]; [3]
  Bcl-wΔ29 IC50 (μM): n.b.^b

## CCCN(C(=O)N[C@@H](CSCC(C)C)C(=O)O)C(=O)c1cccc(C#Cc2ccccc2OC)c1 [(146)]
GST tagged Mcl-1 protein
  Mcl-1 IC50 (μM): n.b.^b

## O=C(O)[C@H](CSCc1ccccc1)NC(=O)N(C(=O)c1cccc(-c2ccccc2)c1)C1CCCCC1 [(10)]
[2]; [4]
  IC50: 26 µM

## CCCN(C(=O)N[C@@H](CSCc1ccccc1)C(=O)O)C(=O)c1ccc(/C=C/c2ccccc2)cc1 [(86)]
GST tagged Mcl-1 protein
  Mcl-1 IC50 (μM): n.b.^b

## CCCN(C(=O)N[C@@H](CSCc1ccccc1)C(=O)O)C(=O)c1cccc(CCc2ccccc2)c1 [(88)]
[1]
  IC50: 51 µM
[2]; [3]
  IC50: 49 µM
GST tagged Mcl-1 protein
  IC50: 154 µM

## CCCN(C(=O)N[C@@H](CSCc1ccc(OC)cc1)C(=O)O)C(=O)c1cccc(C#Cc2ccccc2)c1 [(115)]
[1]
  IC50: 32 µM
